Consider 5 compounds from patent US5846742A, “Selecting substances for treating glucocorticoid-mediated inflammation or immune diseases using Tripterygium wilfordii Hook F extracts” (Board of Regents, The University of Texas System, priority 1997, dated 1998).

Data set [1] concerns PGE2 production by human monocytes (COX-2). Briefly: Endotoxin induced PGE2 production by monocytes (COX-2). Conditions: LPS 10 μg/ml, 18 hours, FIG. 29. The class given is cell-based. As to the method:
After 18 hours of incubation, cell-free supernatants were collected and assayed for PGE2 content with a radioimmunoassay kit (Amersham), as described by the manufacturer. Data represent the mean of two replicate determinations of two separate experiments. […] Human monocytes produce prostaglandinE2 (PGE2) when stimulated with bacterial endotoxin.

For a further data set, the system named is IDH4 cells. The class given is cell-based, human. The conditions noted are these: 72 hours, FIG. 25. The method, then:
IDH4 cells, that express endogenous glucocorticoid receptors, were produced by transfecting human fibroblasts with a plasmid containing the MMTV-long terminal repeat driving the SV40 large T antigen. Since extended growth of these cells is dependent on expression of the large T antigen, these cells require exogenous glucocorticoid to maintain proliferation.
[^3 H]-Thymidine was present for the last 16 h. Data represent the mean k inhibition of [^3 H]-thymidine incorporation of three replicate determinations of three separate experiments.

Data set [2] has as its system human GR (COS-7 cells, MMTV-luciferase). Briefly: GR mediated MMTV-luciferase gene activation. Conditions: for GR-mediated target gene activation: purified TwHF compounds. The class given is cell-based. The method, then: Cell transfections and assays of GR mediated gene activation. COS-7 cells were maintained in culture in DMEM-10% bovine calf serum. […] Cells were plated at 10^6 cells per 10 cm plate. Twenty-four hours later, the cells were transfected with 500 ng pRShGrα, a GR expression vector (obtained from the Salk Institute, La Jolla, Calif.) and 10 μg of pMMTV-luciferase, a synthetic reporter gene. However, other expression vectors and synthetic reporter genes available to those of skill in the art may be used for transfection. The vector pMMTV-luciferase contains the luciferase gene under regulatory control of glucocorticoid-inducible elements in the MMTV-long terminal repeat. Cells were transfected using the calcium-phosphate precipitation technique (mammalian transfection kit, Stratagene, La Jolla, Calif.). […] Twenty-four hours later, the cells were washed, harvested, and lysates prepared by three cycles of freeze/thawing. The lysates were cleared by centrifugation at 12,000×g for 5 minutes; aliquots were assayed for protein content and equal amounts of proteins were used for luciferase assays.
COS-7 cells were transfected with a human GR expression vector and the MMTV-luciferase reporter gene construct. A parallel set of plates was transfected with the constitutively active RSV-luciferase construct. […] Cells were lysed after 24 hours and assayed for luciferase activity.

Data set [3] relates to T cells. Description: PHA-induced T cell proliferation, wilforonide (924). The class given is cell-based, human. The conditions noted are these: at the level of ngs. The source says:
The molecular groups responsible for the immune suppressive function of these compounds are unknown, however, the core structure of diterpenoids which may be related to their activity consists of an α-β-unsaturated 5 element lactone which can be identified by Kedde reagents. HPLC was used to fractionate the ethyl acetate extract of TwHF and the Kedde reagents were employed to trace the fractions. Then, the effect of selected fractions on the in vitro IL-2 production and [^3 H]-thymidine incorporation by PHA-activated T cells was determined. Fractions that inhibit these T cell functions were selected and the chromatographic pattern was identified with HPLC. One fraction was further purified with HPLC and crystallized repeatedly; a pure, crystallized compound was obtained and designated "924".
[^3 H]-thymidine was added for the last 14 hours of culture. Each concentration was run in quadruplicate (4 times) and the results for each concentration averaged to provide a mean. The mean cpm×10^3 values were combined and expressed as a percent of T cell inhibition.
or absence of the indicated concentrations of wilforonide for 3 days.
[^3 H]-Thymidine was added for the last 14 hours. Data are from 4
independent experiments.

A further data set deals with lymph cells. Conditions: concanavalin A; cited from earlier work.
The test system of the next data set is mouse spleen cells. Conditions: high concentrations; cited from earlier work.
The test system of another data set is B cells. Description: SA-induced B cell DNA synthesis / Ig production, triptolide. The class given is cell-based, human. The conditions noted are these: for SA-induced B cell DNA synthesis (3H-thymidine incorporation): control 7,900. From the text:
Other components of Tripterygium wilfordii Hook F include: […]

Data set [4] deals with T cells. Description: PHA-induced T cell DNA synthesis, triptolide. The class given is cell-based, human. Conditions: for PHA-induced T cell DNA synthesis (3H-thymidine incorporation): control 93,400.
The next data set has as its system Fibroblasts. The data set is classed as cell-based, human. The conditions noted are these: triptolide 10 ng/ml. The method, then: The cells were assayed for cell viability by using a cytoflowmeter (FACSCAN) after the cells were stained with propidium iodine.

`CC#C[C@]1(O)CC[C@H]2[C@@H]3CCC4=CC(=O)CCC4=C3[C@@H](c3ccc(N(C)C)cc3)C[C@@]21C` [RU486, reference compound]: the “Endotoxin induced PGE2 production / COX-2 induction” value in data set [1] is listed as “inhibits endotoxin-induced PGE2 production by human peripheral blood monocytes, however, it is not as effective as the TwHF extract at lower concentrations”.
As to `CC(C)c1ccc2c(c1O)CC[C@H]1C3=C(CC[C@]21C)C(=O)OC3` [Triptophenolide, triptophenolide], in the data set on IDH4 cells, the “Dexamethasone dependent growth of IDH4 cells” value was “less active and its activity was not generally correlated with dosage”. For the same compound, in [2], the “Immunosuppressive activity relative to triptolide or tripdiolide” value was “much less immunosuppressive than triptolide or tripdiolide” and the “GR-mediated target gene activation” value is “far less potent”.
For `CC(C)[C@]12O[C@H]1[C@@H]1O[C@]13[C@]1(O[C@H]1C[C@H]1C4=C(C(=O)OC4)[C@@H](O)C[C@@]13C)[C@@H]2O` [Tripdiolide, tripdiolide], in data set [1], the “Endotoxin induced PGE2 production / COX-2 induction” value is “inhibited by the extract of TwHF and its purified immunosuppressive component, tripdiolide”. For the same compound, the “Dexamethasone dependent growth of IDH4 cells” value with IDH4 cells is reported as “inhibited dexamethasone dependent growth of IDH4 cells in a concentration dependent manner”. In addition, in [2], the “GR-mediated target gene activation” value is reported as “inhibited target gene activation by GR”. Further, the Immunosuppressive action entry in the data set on T cells [3] is reported as “potent immunosuppressive action”.
As for `CC(C)[C@]12O[C@H]1[C@@H]1O[C@@]13[C@@]1(C)CCC4=C(COC4=O)[C@@H]1C[C@@H]1O[C@@]13C2=O` [Triptonide, triptonide, reference compound], the Lymph cell proliferation entry with lymph cells was “inhibit the proliferation of lymph cells induced by concanavalin A”.
In the case of `CC(C)[C@]12O[C@H]1[C@@H]1O[C@]13[C@]1(O[C@H]1C[C@H]1C4=C(CC[C@@]13C)C(=O)OC4)[C@@H]2O` [Triptolide, triptolide], in the data set on mouse spleen cells, the “Lymphocyte proliferation and IL-2 production” value is “suppress B and T lymphocyte proliferation and interleukin-2 production by mouse spleen cells”. The Lymph cell proliferation result in the data set on lymph cells is listed as “inhibit the proliferation of lymph cells induced by concanavalin A”. Also, the “GR-mediated target gene activation” value in data set [2] is recorded as “inhibited target gene activation by GR”. Further, the “SA-induced B cell DNA synthesis (3H-thymidine incorporation)” value is listed as 2,000 CPM with B cells (0.1 ng/ml) and 100 CPM in the data set on B cells (1.0 ng/ml). In the data set on B cells (0.1-1.0 ng/ml), the B lymphocyte proliferation entry was “inhibited proliferation of both T and B lymphocytes profoundly”. The “Immunoglobulin production, mitogen stimulated B lymphocytes” value with B cells (in vitro) is “inhibited the in vitro production of immunoglobulin from mitogen stimulated human B lymphocytes at comparably small concentrations”. For the same compound, the “PHA-induced T cell DNA synthesis (3H-thymidine incorporation)” value with T cells [4] (0.1 ng/ml) is on record as 24,200 CPM; with T cells [4] (1.0 ng/ml) it was 100 CPM. Also, the T lymphocyte proliferation result in the data set on T cells [4] (0.1-1.0 ng/ml) was “inhibited proliferation of both T and B lymphocytes profoundly”. In addition, in the data set on Fibroblasts, the Toxicity to fibroblasts result was “toxic to fibroblasts”. Also, the Immunosuppressive action entry with T cells [3] is reported as “potent immunosuppressive action”.
